Measured values published in BindingDB's records for doi:10.1111/cbdd.12724 (Hamdard University (Jamia Hamdard), 2016).

Target: Glycogen synthase kinase-3 beta (Homo sapiens, UniProt P49841)
Test: Kinase-Glo Assay
Settings: 30 °C
Protocol: The final DMSO concentration in the reaction mixture was <1%. After incubation at 30 °C for 30 min, the enzymatic reaction was quenched with 40 μL of Kinase-Glo reagent. Luminescence was recorded after 10 min using Infinite F200® PRO multimode reader (Tecan Group Ltd., Männedorf, Switzerland). The activity is proportional to the difference of the total and consumed ATP.

Sequence of Glycogen synthase kinase-3 beta (P49841 whole entry): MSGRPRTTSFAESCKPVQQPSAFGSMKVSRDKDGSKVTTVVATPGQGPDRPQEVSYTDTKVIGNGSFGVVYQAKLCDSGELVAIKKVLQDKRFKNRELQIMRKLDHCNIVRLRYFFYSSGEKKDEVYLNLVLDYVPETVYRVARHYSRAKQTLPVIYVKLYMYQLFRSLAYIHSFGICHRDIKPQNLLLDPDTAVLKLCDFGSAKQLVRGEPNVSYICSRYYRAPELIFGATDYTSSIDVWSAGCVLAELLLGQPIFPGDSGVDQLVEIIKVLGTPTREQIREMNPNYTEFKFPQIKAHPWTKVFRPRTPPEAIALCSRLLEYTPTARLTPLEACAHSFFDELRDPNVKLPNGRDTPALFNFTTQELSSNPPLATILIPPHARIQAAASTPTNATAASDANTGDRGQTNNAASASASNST

SMILES | IC50 [µM]
COc1ccc(-n2cc(Cn3c(=O)oc4cccnc43)nn2)cc1 [3-((1-(4-methoxyphenyl)-1H-1,2,3-triazol-4-yl)methyl)oxazolo[4,5-b]pyridin-2(3H)-one (4l)] | 8.45
O=c1oc2cccnc2n1Cc1cn(-c2cccnc2)nn1 [3-((1-(pyridin-3-yl)-1H-1,2,3-triazol-4-yl)methyl)oxazolo[4,5-b]pyridin-2(3H)-one (4d)] | 0.23
Cc1ccc(-n2cc(Cn3c(=O)oc4cccnc43)nn2)cc1C [3-((1-(3,4-dimethylphenyl)-1H-1,2,3-triazol-4-yl)methyl)oxazolo[4,5-b]pyridin-3H)one (4j)] | 40.1
O=c1oc2cccnc2n1Cc1cn(-c2ccc([N+](=O)[O-])cc2)nn1 [3-((1-(4-nitrophenyl)-1H-1,2,3-triazol-4-yl)methyl)oxazolo[4,5-b]pyridin-2(3H)-one (4p)] | 17.1
CCc1ccc(-n2cc(Cn3c(=O)oc4cccnc43)nn2)cc1 [3-((1-(4-ethylphenyl)-1H-1,2,3-triazol-4-yl)methyl)oxazolo[4,5-b]pyridin-2(3H)-one (4h)] | 12.7
CC(C)(C)c1ccc(-n2cc(Cn3c(=O)oc4cccnc43)nn2)cc1 [3-((1-(4-tert-butylphenyl)-1H-1,2,3-triazol-4-yl)methyl)oxazolo[4,5-b]pyridin-2(3H)-one (4m)] | 23.5
Cc1ccccc1-n1cc(Cn2c(=O)oc3cccnc32)nn1 [3-((1-o-tolyl-1H-1,2,3-triazol-4-yl)methyl)oxazolo[4,5-b]pyridin-2(3H)-one (4n)] | 0.65
O=c1oc2cccnc2n1Cc1cn(-c2ccc(Cl)c(Cl)c2)nn1 [3-((1-(3,4-dichlorophenyl)-1H-1,2,3-triazol-4-yl)methyl)oxazolo[4,5-b]pyridin-2(3H)-one (4s)] | 12.6
O=c1oc2cccnc2n1Cc1cn(-c2ccccc2Cl)nn1 [3-((1-(2-chlorophenyl)-1H-1,2,3-triazol-4-yl)methyl)oxazolo[4,5-b]pyridin-2(3H)-one (4g)] | 0.19
O=c1oc2cccnc2n1Cc1cn(-c2cccnc2Cl)nn1 [3-((1-(2-chloropyridin-3-yl)-1H-1,2,3-triazol-4-yl)methyl)oxazolo[4,5-b]pyridin-2(3H)-one (4t)] | 11
O=c1oc2cccnc2n1Cc1cn(-c2ccc(Cl)cc2)nn1 [3-((1-(4-chlorophenyl)-1H-1,2,3-triazol-4-yl)methyl)oxazolo[4,5-b]pyridin-2(3H)-one (4c)] | 5.73
O=c1oc2cccnc2n1Cc1cn(-c2ccccc2F)nn1 [3-((1-(2-fluorophenyl)-1H-1,2,3-triazol-4-yl)methyl)oxazolo[4,5-b]pyridin-2(3H)-one (4i)] | 0.37
O=c1oc2cccnc2n1Cc1cn(-c2ccc(F)cc2)nn1 [3-((1-(4-fluorophenyl)-1H-1,2,3-triazol-4-yl)methyl)oxazolo[4,5-b]pyridin-2(3H)-one (4e)] | 2.49
CCOc1ccc(-n2cc(Cn3c(=O)oc4cccnc43)nn2)cc1 [3-((1-(4-ethoxyphenyl)-1H-1,2,3-triazol-4-yl)methyl)oxazolo[4,5-b]pyridin-2(3H)-one (4u)] | 37.3
O=c1oc2cccnc2n1Cc1cn(-c2ccc(Cl)cc2Cl)nn1 [3-((1-(2,4-dichlorophenyl)-1H-1,2,3-triazol-4-yl)methyl)oxazolo[4,5-b]pyridin-2(3H)-one (4r)] | 10.8
O=c1oc2cccnc2n1Cc1cn(-c2ccccc2Br)nn1 [3-((1-(2-bromophenyl)-1H-1,2,3-triazol-4-yl)methyl)oxazolo[4,5-b]pyridin-2(3H)-one (4f)] | 0.31
O=c1oc2cccnc2n1Cc1cn(-c2ccccc2)nn1 [3-((1-phenyl-1H-1,2,3-triazol-4-yl)methyl)oxazolo[4,5-b]pyridin-2(3H)-one (4a)] | 10.1
O=c1oc2cccnc2n1Cc1cn(-c2cccc([N+](=O)[O-])c2)nn1 [3-((1-(3-nitrophenyl)-1H-1,2,3-triazol-4-yl)methyl)oxazolo[4,5-b]pyridin-2(3H)-one (4o)] | 15.6
O=c1oc2cccnc2n1Cc1cn(-c2cccc(Cl)c2)nn1 [3-((1-(3-chlorophenyl)-1H-1,2,3-triazol-4-yl)methyl)oxazolo[4,5-b]pyridin-2(3H)-one (4k)] | 28.4
O=c1oc2cccnc2n1Cc1cn(-c2ccc(Br)cc2)nn1 [3-((1-(4-bromophenyl)-1H-1,2,3-triazol-4-yl)methyl)oxazolo[4,5-b]pyridin-2(3H)-one (4b)] | 8.64
COc1ccccc1-n1cc(Cn2c(=O)oc3cccnc32)nn1 [3-((1-(2-methoxyphenyl)-1H-1,2,3-triazol-4-yl)methyl)oxazolo[4,5-b]pyridin-2(3H)-one  (4q)] | 0.74
